Data taken from patent US9404080B2, “Human taste cells capable of continuous proliferation” (B.R.A.I.N. BIOTECHNOLOGY RESEARCH AND INFORMATION NETWORK AG, priority 2012, dated 2016).
Entries after “also recorded” stand apart in the source; their conditions may differ.

Key:
[1] = system: human taste cells BR-HTC8; assay: FLIPR fluorescent membrane potential (FMP) imaging assay in BR-HTC8; format: cell-based; details: for change of cellular membrane potential (FLIPR FMP dye fluorescence) on addition of the test molecule: BR-HTC8, increasing concentrations in KH-buffer; for FMP assay BR-HTC8: dose-dependent decrease in cellular membrane potential on stimulation with the cognate bitter molecule of the TAS2R; as to FMP assay BR-HTC8: key: + indicates that the analysis was successful and that the mRNA was detected by RT-PCR or that stimulation of human taste cells with the respective taste molecule resulted in a dose-dependent increase in intracellular calcium or decrease in cellular membrane potential
Protocol: This cell depolarization was measured by using voltage-sensitive dyes including FLIPR fluorescent membrane potential (FMP) dye (Molecular Devices R8123). Before the assay, cells were maintained in HTC medium for at least 48 hours as described above in Example 1. Cells were then trypsinized with accutase (e.g. PAA, L11-007) or TrypLE (e.g. Gibco, 12563) and seeded into poly-D-lysine coated 96-well assay plates (Corning) at a density of 15,000 cells/well in […].
After 24 hours, medium was removed and the cells are washed once with 100 μl KH buffer (10 mM HEPES pH7.4 containing 118 mM NaCl, 4.7 mM KCl, 4.2 mM NaHCO3, 1.2 mM KH2PO4, 1.2 mM MgSO4, 1.3 mM CaCl2) and then stained with 200 μl KH buffer containing FLIPR FMP dye according instructions of the manufacturer […] and incubation for 2 hours at 37° C. The plates were then transferred into a fluorescence microplate reader to monitor changes in membrane potential-dependent fluorescence (excitation 530 nm, emission 565 nm) after the addition of 50 μl KH-buffer supplemented with the test molecule under investigation. The test molecule was added 16 seconds after starting the scan and baseline recording, mixed twice, and then recording continued for additional 74 seconds. Data points of a total of 35 reads were collected.
Data analysis/Data recording—Changes of the membrane potential was measured as the change of peak fluorescence (ΔF) over the baseline level (F). Data were expressed as the mean S.E. of the ΔF/F value of replicated independent samples. Data analysis was done with software provided by the manufacturer of the microplate reader (Molecular Devices).
(§1) To test, whether stimulation of human taste cells with taste molecules leads to changes in cellular membrane potential the FLIPR fluorescent membrane potential assay was performed as described above. Non-taste cells including HEK293 cells and non-lingual, proliferating primary cells isolated from the oral cavity served as a control and were treated equally throughout the procedure. Changes in membrane potential were recorded on a Molecular Devices Fluorescence microplate reader. Measurement was started by addition of increasing concentrations of the taste molecules in KH-buffer to the cells. KH-buffer served as negative control and KH-buffer containing 4 μM FCCP (e.g. Sigma, C2920) served as a positive control. […] Data were obtained from several independent experiments and performed in triplicates.
as §1, with “This cell depolarization can be measured by using voltage-sensitive dyes including FLIPR fluorescent membrane potential (FMP) dye (Molecular Devices R8123) as described above in Example 6. To” for “To”, “oxytocin” for “taste molecules”, “oxytocin” for “the taste molecules”

[2] = system: human taste cells BR-HTC8; assay: Fluo-4 fluorescent calcium imaging assay in BR-HTC8; format: cell-based; details: for change of Fluo4-fluorescence / intracellular calcium on addition of the test molecule: BR-HTC8, increasing concentrations in KH-buffer with Ca2+; for Fluo-4 assay BR-HTC8: dose-dependent increase in intracellular calcium on stimulation with the cognate bitter molecule of the TAS2R named in the row; as to Fluo-4 assay BR-HTC8: key: + indicates that the analysis was successful and that the mRNA was detected by RT-PCR or that stimulation of human taste cells with the respective taste molecule resulted in a dose-dependent increase in intracellular calcium or decrease in cellular membrane potential
Protocol: Before the assay, cells are maintained in HTC medium for at least 48 hours as described in Example 1. Cells are then trypsinized with accutase (e.g. PAA, L11-007) or TrypLE (e.g. Gibco, 12563) and seeded into poly-D-lysine coated 96-well assay plates (e.g. Corning) at a density of 15,000 cells/well in 100 μl HTC medium.
After 24 hours, the cells (still in 100 μl medium) are stained by addition of 100 μl of Fluo-4 staining solution, which consists of KH buffer (10 mM HEPES pH7.4 containing 118 mM NaCl, 4.7 mM KCl, 4.2 mM NaHCO3, 1.2 mM KH2PO4, 1.2 mM MgSO4, 1.3 mM CaCl2) containing 4 μM Fluo-4 (Molecular Probes) and incubation for 1 hour at 37° C. Final Fluo-4 concentration in the staining solution/medium mixture is 2 μM. Staining solution is then replaced by 80 μl KH-buffer per well and plates are transferred into a fluorescence microplate reader to monitor changes in Ca^2+-dependent fluorescence (excitation 488 nm, emission 530 nm) after the addition of 20 μl KH-buffer supplemented with the test molecule under investigation. The test molecule was added 16 seconds after starting the scan and baseline recording, mixed twice, and then recording continued for additional 44 seconds. Data points of a total of 18 reads were collected. Data analysis/Data recording—Calcium mobilization was measured as the change of peak fluorescence (ΔF) over the baseline level (F). Data were expressed as the mean S.E. of the ΔF/F value of replicated independent samples. Data analysis was done with software provided by the manufacturer of the microplate reader (e.g. Molecular Devices).
(§2) To test, whether stimulation of human taste cells with these taste molecules leads to changes in intracellular calcium the Fluo-4 fluorescent calcium imaging assay was performed as described above. Non-taste cells including HEK293 cells and non-lingual, proliferating primary cells isolated from the oral cavity served as a control and were treated equally throughout the procedure. Changes in Ca^2+-dependent Fluo-4 fluorescence were recorded on a Molecular Devices Fluorescence microplate reader. Measurement was started by addition of increasing concentrations of the taste molecules in KH-buffer to the cells. KH-buffer served as negative control and KH-buffer containing 1 μM ionomycin served as a positive control. […] Calcium signals for each test molecule are depicted as Relative Fluorescence Units (RFU), which means that calcium mobilization in response to taste molecules was calculated dF/F0, with dF is (peak fluorescence F1−baseline fluorescence F0). […] Data were obtained from several independent experiments and performed in triplicates.
In order to perform to the Fluo-4 fluorescent calcium imaging experiment in the absence of extracellular Ca^2+ the procedure was conducted as described above, however, the KH-buffer was prepared without addition of Ca^2+. Measurement was started by addition of increasing concentrations of the taste molecules in KH-buffer without Ca^2+ to the cells. KH-buffer without Ca^2+ served as negative control and KH-buffer without Ca^2+ containing 1 μM ionomycin served as a positive control.
To test, whether stimulation of human taste cells with oxytocin leads to changes in intracellular calcium the Fluo-4 fluorescent calcium imaging assay was performed as described above in Example 5. Briefly, the human taste cells were seeded in 96-well plates and stained with 2 μM of the calcium-sensitive fluorescence dye Fluo4 in HTC/KH buffer medium for one hour at 37° C. with subsequent replacement of the staining solution with KH-buffer. Non-taste cells including HEK293 cells and non-lingual, proliferating primary cells isolated from the oral cavity served as a control and were treated equally throughout the procedure. Changes in Ca^2+-dependent Fluo-4 fluorescence were recorded on a Molecular Devices Fluorescence microplate reader.

[3] = system: Non-taste cells including HEK293 cells, Cal33 cells, and non-lingual, proliferating primary cells isolated from the oral cavity; assay: Fluo-4 fluorescent calcium imaging assay in non-taste control cells; format: cell-based, human
Protocol: Briefly, human taste cells were seeded in 96-well plates and stained with Fluo4-AM. Non-taste cells including HEK293 cells, Cal33 cells, and non-lingual, proliferating primary cells isolated from the oral cavity served as a control. Changes in Ca^2+-dependent Fluo-4 fluorescence were recorded on a Molecular Devices fluorescence microplate reader. Measurement was started by addition of increasing concentrations of the taste molecules. […] Calcium signals for each test molecule are depicted as relative fluorescence units (RFU).
as §2

[4] = system: BR-HTC38 cells; assay: Fluo-4 fluorescent calcium imaging assay in TAS2R38-transduced BR-HTC38; format: cell-based, human; details: BR-HTC38 (TAS2R38 expressed) vs BR-HTC8
Protocol: Changes in Ca^2+-dependent Fluo-4 fluorescence were recorded on a Molecular Devices fluorescence microplate reader. Measurement was started by addition of increasing concentrations of the taste molecules in KH-buffer to the cells. KH-buffer served as negative control and KH-buffer containing 1 μM ionomycin served as a positive control. […] Calcium signals for each test molecule are depicted as Relative Fluorescence Units (RFU), which means that calcium mobilization in response to taste molecules was calculated dF/F0, with dF is (peak fluorescence F1−baseline fluorescence F0). […] Data were obtained from several independent experiments and performed in triplicates.

Nc1ncnc2c1ncn2[C@@H]1O[C@H](COP(=O)(O)OP(=O)(O)OP(=O)(O)O)[C@@H](O)[C@H]1O [ATP, adenosine triphosphate]
change of cellular membrane potential (FLIPR FMP dye fluorescence) on addition of the test molecule [1]: dose-dependent decrease in cellular membrane potential; also recorded: dose-dependent decrease of membrane potential | change of Fluo4-fluorescence / intracellular calcium on addition of the test molecule [2]: increase in intracellular calcium

CC1=CC(=O)[N-]S(=O)(=O)O1.[K+] [Acesulfame K]
change of cellular membrane potential (FLIPR FMP dye fluorescence) on addition of the test molecule [1]: decrease in cellular membrane potential | FMP assay BR-HTC8 [1]: + | change of Fluo4-fluorescence / intracellular calcium on addition of the test molecule [2]: do not trigger an increase in intracellular calcium | Fluo-4 assay BR-HTC8 [2]: +

COc1cccc2c1cc([N+](=O)[O-])c1c(C(=O)O)cc3c(c12)OCO3 [Aristolochic acid]
increase of Fluo4-fluorescence in control cells [3]: not in control cells | change of cellular membrane potential (FLIPR FMP dye fluorescence) on addition of the test molecule [1]: dose-dependent decrease in cellular membrane potential; also recorded: dose-dependent decrease of membrane potential | FMP assay BR-HTC8 [1]: + | change of Fluo4-fluorescence / intracellular calcium on addition of the test molecule [2]: dose-dependent increase of Fluo4-fluorescence | Fluo-4 assay BR-HTC8 [2]: +

O=C(N[C@H](CO)[C@H](O)c1ccc([N+](=O)[O-])cc1)C(Cl)Cl [Chloramphenicole]
Fluo-4 assay BR-HTC8 [2]: +

CCN(CC)CCCC(C)Nc1ccnc2cc(Cl)ccc12 (centres unmarked) [Chloroquine]
FMP assay BR-HTC8 [1]: +

CC[N+](CC)(CC(=O)Nc1c(C)cccc1C)Cc1ccccc1.O=C([O-])c1ccccc1 [Denatonium benzoat]
Fluo-4 assay BR-HTC8 [2]: +

O=C(O[C@@H]1Cc2c(O)cc(O)cc2O[C@@H]1c1cc(O)c(O)c(O)c1)c1cc(O)c(O)c(O)c1 [EGCG]
Fluo-4 assay BR-HTC8 [2]: +

O=S(=O)(NCCNC/C=C/c1ccc(Br)cc1)c1cccc2cnccc12 [H89]
calcium response to saccharin in the presence of H89 ([2]; 0.5 μM H89, BR-HTC8): not reduced | calcium signalling on stimulation with salicin in the presence of H89 ([2]; 0.5 μM H89, BR-HTC8): slightly inhibited

COc1cc(OC2CCN(C(C)=O)CC2)ccc1C(=O)N1CCC(N2C(=O)OCc3ccccc32)CC1 [L371,257]
calcium signalling on stimulation with oxytocin in the presence of L371,257 ([2]; 40 nM L371,257, BR-HTC8): inhibited

CC1COc2c(N3CCN(C)CC3)c(F)cc3c(=O)c(C(=O)O)cn1c23 (centres unmarked) [Ofloxacine]
Fluo-4 assay BR-HTC8 [2]: +

Cc1ccccc1C(OCCN(C)C)c1ccccc1 (centres unmarked) [Orphenadrine]
Fluo-4 assay BR-HTC8 [2]: +

NC(=S)Nc1ccccc1 [PTC, phenylthiocarbamide]
dose-dependent Fluo-4 calcium response in BR-HTC38 compared with parental BR-HTC8 [4]: enhanced | FMP assay BR-HTC8 [1]: + | change of Fluo4-fluorescence / intracellular calcium on addition of the test molecule [2]: dose-dependent increase of Fluo4-fluorescence | Fluo-4 assay BR-HTC8 [2]: +

O=C1NS(=O)(=O)c2ccccc21 [Saccharin]
dose-dependent Fluo-4 calcium response in BR-HTC38 compared with parental BR-HTC8 [4]: enhanced | increase of Fluo4-fluorescence in control cells [3]: not in control cells | change of Fluo4-fluorescence / intracellular calcium on addition of the test molecule [2]: dose-dependent increase of Fluo4-fluorescence | Fluo-4 calcium response in the absence of extracellular Ca2+ ([2]; KH-buffer without Ca2+, BR-HTC8, molecule alone): cannot trigger a Ca^2+ response; also recorded: did not trigger increase of intracellular Ca^2+; also recorded: no response | increase of intracellular calcium in response to salicin when combined with saccharin ([2]; absence of extracellular calcium, increasing salicin with four fixed concentrations of saccharin): strongly enhanced | Fluo-4 assay BR-HTC8 [2]: +

COc1ccc2c(c1)CC[C@@H]1[C@@H]2CC[C@]2(C)[C@@H](NCCCCCCN3C(=O)C=CC3=O)CC[C@@H]12 [U73122]
calcium response to saccharin in the presence of U73122 ([2]; 5 μM U73122, BR-HTC8): not reduced | calcium signalling on stimulation with salicin in the presence of U73122 ([2]; 5 μM U73122, BR-HTC8): inhibited

CCCCC/C=C\C/C=C\CCCCCCCC(=O)O [linoleic acid]
increase of Fluo4-fluorescence in control cells [3]: not in control cells | change of Fluo4-fluorescence / intracellular calcium on addition of the test molecule [2]: dose-dependent increase of Fluo4-fluorescence

CCCCCCCC/C=C\CCCCCCCC(=O)O [oleic acid]
increase of Fluo4-fluorescence in control cells [3]: not in control cells | change of Fluo4-fluorescence / intracellular calcium on addition of the test molecule [2]: dose-dependent increase of Fluo4-fluorescence

CC[C@H](C)[C@@H]1NC(=O)[C@H](Cc2ccc(O)cc2)NC(=O)[C@@H](N)CSSC[C@@H](C(=O)N2CCC[C@H]2C(=O)N[C@@H](CC(C)C)C(=O)NCC(N)=O)NC(=O)[C@H](CC(N)=O)NC(=O)[C@H](CCC(N)=O)NC1=O [oxytocin]
change of cellular membrane potential (FLIPR FMP dye fluorescence) on addition of the test molecule [1]: dose-dependent decrease of membrane potential | change of Fluo4-fluorescence / intracellular calcium on addition of the test molecule [2]: dose-dependent increase of Fluo4-fluorescence
